Data on 32 molecules can be found in US7964624B1, “Inhibitors of serine proteases” (priority 2005, dated 2011).

Structures are written as SMILES.

The target in one test is T1, full-length hepatitis C viral protein NS3•4A (Hepatitis C virus genotype 1a, UniProt P27958).
T1 construct: hexa-histidine (N); made in house; host or cells: Sf9 insect cells (baculovirus, pVL1392)
The test is described as follows: biochemical. Also on record: species or system HCV sub-type strain 1a. Particulars: Enzyme Assay 2 (HCV NS3 Peptide Cleavage Assay) activity, apparent Ki class.
For the molecule `CCC[C@H](NC(=O)[C@@H]1C[C@]2(CC(c3cc(Cl)c(OC)cc3C)=NO2)CN1C(=O)[C@@H](NC(=O)OC(C)(C)C)C(C)(C)C)C(=O)C(=O)NC1CC1` [Compound 628], the Ki lay within 100 to 500 nM.
Consider `CCC[C@H](NC(=O)[C@@H]1C[C@]2(CC(c3cc(Cl)c(OC)cc3C)=NO2)CN1C(=O)[C@@H](NC(=O)CC1CCCCC1)C(C)(C)C)C(=O)C(=O)NC` [Compound 604], for which the Ki lay in the range of 100 to 500 nM.
As to `CNC(=O)C(=O)[C@H](CC1CC1)NC(=O)[C@@H]1C[C@]2(CC(c3cc(C)c(OC)c(C)c3)=NO2)CN1C(=O)[C@@H](NC(=O)CC1CCCCC1)C(C)(C)C` [Compound 725], the Ki is under 100 nM.
Same read-out and setting: the result for `CCC[C@H](NC(=O)[C@@H]1C[C@]2(CC(c3cc(Cl)ccc3OC)=NO2)CN1C(=O)[C@@H](NC(=O)CC1CCCCCC1)C(C)(C)C)C(=O)C(=O)NC` [Compound 634] reads under 100 nM.
For `CCC[C@H](NC(=O)[C@@H]1C[C@]2(CC(c3ccc(F)c(Cl)c3)=NO2)CN1C(=O)[C@@H](NC(=O)OC1CCCC1)C(C)(C)C)C(=O)C(=O)NC1CC1` [Compound 652], the Ki is under 100 nM.
In the case of `CNC(=O)C(=O)[C@H](CC1CC1)NC(=O)[C@@H]1C[C@]2(CC(c3cccc(Cl)c3)=NO2)CN1C(=O)[C@@H](NC(=O)[C@H]1C[C@@H]1c1cccs1)C(C)(C)C` [Compound 739], the Ki is under 100 nM.
The same measure, in the same setting: with `CCC[C@H](NC(=O)[C@@H]1C[C@]2(CC(c3cc(C)c(OC)c(C)c3)=NO2)CN1C(=O)[C@@H](NC(=O)CC(C)(C)C)C(C)(C)C)C(=O)C(N)=O` [Compound 733] the figure was under 100 nM; with `CCC[C@H](NC(=O)[C@@H]1C[C@]2(CC(c3cc(Cl)c(OC)cc3OC)=NO2)CN1C(=O)[C@@H](NC(=O)OC(C)(C)C)C(C)(C)C)C(=O)C(=O)N1CCC1` [Compound 581], under 100 nM.
The same measure, in the same setting: with `CCC[C@H](NC(=O)[C@@H]1C[C@]2(CC(c3cccc(Cl)c3)=NO2)CN1C(=O)[C@@H](NC(=O)[C@H]1C[C@@H]1c1ccccc1)C(C)(C)C)C(=O)C(=O)NC1CC1` [Compound 697] the figure was under 100 nM.
On to `CC(C)(C)[C@H](NC(=O)CC1CCCCCC1)C(=O)N1C[C@@]2(CC(c3cccc4cccnc34)=NO2)C[C@H]1C(=O)N[C@@H](CC1CC1)C(=O)C(N)=O` [Compound 602], for which the Ki was under 100 nM.
Same read-out and setting: the result for `CCC[C@H](NC(=O)[C@@H]1C[C@]2(CC(c3cccc(Cl)c3)=NO2)CN1C(=O)Cc1ccc(OC(F)(F)F)cc1)C(=O)C(=O)NC1CC1` [Compound 380] reads over 500 nM; that for `CCC[C@H](NC(=O)[C@@H]1C[C@]2(CC(c3cccc(Cl)c3)=NO2)CN1C(=O)[C@@H](NC(=O)CC(C)(C)OC)C(C)(C)C)C(=O)C(=O)NC1CC1` [Compound 772], under 100 nM.
As to `COc1c(C)cc(C2=NO[C@]3(C2)C[C@@H](C(=O)N[C@@H](CC2CC2)C(=O)C(N)=O)N(C(=O)[C@@H](NC(=O)CC2CCCCC2)C(C)(C)C)C3)cc1C` [Compound 726], the Ki is under 100 nM.
`CCC[C@H](NC(=O)[C@@H]1C[C@]2(CC(c3cc(C)cc(Cl)c3)=NO2)CN1C(=O)[C@@H](NC(=O)CC1CCCCC1)C(C)(C)C)C(=O)C(=O)NC1CC1` [Compound 396]: the Ki was under 100 nM.
As to `CCC[C@H](NC(=O)[C@@H]1C[C@]2(CC(c3cc(F)cc4c3OCOC4)=NO2)CN1C(=O)[C@@H](NC(=O)CC1CCCCC1)C(C)(C)C)C(=O)C(=O)NC1CC1` [Compound 305], the Ki is 100 to 500 nM.
On the same count and under the same terms, with `CCC[C@H](NC(=O)[C@@H]1C[C@]2(CC(c3cc(C)c(OC)cc3OC)=NO2)CN1C(=O)[C@@H](NC(=O)CC1CCCCC1)C(C)(C)C)C(=O)C(=O)NC1CC1` [Compound 614] the figure was under 100 nM; with `COc1c(C)cc(C2=NO[C@]3(C2)CC(C(=O)N[C@H](CC2CC2)C(=O)C(N)=O)N(C(=O)[C@@H](NC(=O)CC2CCCCC2)C(C)(C)C)C3)cc1Cl` (some centres unmarked) [Compound 658], 100 to 500 nM; with `C[C@@H]1CC(CC(=O)N[C@H](C(=O)N2C[C@@]3(CC(c4cccc(Cl)c4)=NO3)C[C@H]2C(=O)N[C@@H](CC2CC2)C(=O)C(N)=O)C(C)(C)C)C[C@@H](C)O1` (some centres unmarked) [Compound 468], under 100 nM.
Still for that read-out and setting: with `CCC[C@H](NC(=O)[C@@H]1C[C@]2(CC(c3ccc(F)c(Cl)c3)=NO2)CN1C(=O)[C@@H](NC(=O)CC(C)(C)C)C(C)(C)C)C(=O)C(=O)NC` [Compound 612] the figure was under 100 nM.

Staying with this test, now noted: Enzyme Assay 2, HCV NS3 Peptide Cleavage Assay, apparent Ki.
For the molecule `CNC(=O)C(=O)[C@H](CC1CC1)NC(=O)[C@@H]1C[C@]2(CC(c3cccc(Cl)c3)=NO2)CN1C(=O)[C@@H](NC(=O)[C@@H]1C[C@@H]1c1ccccn1)C(C)(C)C` [Compound 886], the Ki was under 100 nM.
For `CNC(=O)C(=O)[C@H](CC1CC1)NC(=O)[C@@H]1C[C@]2(CC(c3cccc4cccnc34)=NO2)CN1C(=O)[C@@H](NC(=O)[C@H]1C[C@@H]1c1ccccc1)C(C)(C)C` [Compound 807], the Ki fell in the range of 100 to 500 nM.
As for `CNC(=O)C(=O)[C@H](CC1CC1)NC(=O)[C@@H]1C[C@]2(CC(c3cccc(Cl)c3)=NO2)CN1C(=O)[C@@H](NC(=O)[C@@H]1C[C@H]1c1cccnc1)C(C)(C)C` [Compound 885], the Ki fell in the range of 100 to 500 nM.
Same read-out and setting: the result for `CCC[C@H](NC(=O)[C@@H]1C[C@]2(CC(c3cc(C)c(OC)cc3OC)=NO2)CN1C(=O)[C@@H](NC(=O)[C@@H]1C[C@H]1c1ccccc1)C(C)(C)C)C(=O)C(=O)NC1CC1` [Compound 875] reads under 100 nM; that for `CCC[C@H](NC(=O)[C@@H]1C[C@]2(CC(c3cc(C)c(OCC)c(C)c3)=NO2)CN1C(=O)[C@@H](NC(=O)[C@H]1C[C@@H]1c1ccc(F)cc1)C(C)(C)C)C(=O)C(=O)NC` [Compound 997], under 100 nM; that for `CCC[C@H](NC(=O)[C@@H]1C[C@]2(CC(c3cc(C)c(OCC)c(C)c3)=NO2)CN1C(=O)[C@@H](NC(=O)[C@@H]1C[C@H]1c1ccc(F)cc1)C(C)(C)C)C(=O)C(=O)NC1CC1` [Compound 994], under 100 nM.
On the same count and under the same terms, the result for `CCC[C@H](NC(=O)[C@@H]1C[C@]2(CC(c3cccc(Cl)c3)=NO2)CN1C(=O)[C@@H](NC(=O)[C@@H]1C[C@H]1C1CCCC1)C(C)(C)C)C(=O)C(=O)NC1CC1` [Compound 954] reads under 100 nM.
As to `CNC(=O)C(=O)[C@H](CC1CC1)NC(=O)[C@@H]1C[C@]2(CC(c3cccc(Cl)c3)=NO2)CN1C(=O)[C@@H](NC(=O)C1(c2ccccc2)CC1)C(C)(C)C` [Compound 966], the Ki was over 500 nM.
Still for that read-out and setting: with `CCC[C@H](NC(=O)[C@@H]1C[C@]2(CC(c3cccc(Cl)c3)=NO2)CN1C(=O)[C@@H](NC(=O)[C@H]1CC12CCOCC2)C(C)(C)C)C(=O)C(=O)NC1CC1` [Compound 826] the figure was under 100 nM.
Same read-out and setting: with `CCC[C@H](NC(=O)[C@@H]1C[C@]2(CC(N3Cc4ccccc4C3)=NO2)CN1C(=O)[C@@H](NC(=O)OC1CCCC1)C(C)(C)C)C(=O)C(=O)NC1CC1` [Compound 964] the figure was 100 to 500 nM.
With `CNC(=O)C(=O)[C@H](CC1CC1)NC(=O)[C@@H]1C[C@]2(CC(c3cccc(Cl)c3)=NO2)CN1C(=O)[C@@H](NC(=O)[C@H]1C[C@@H]1c1c[nH]cn1)C(C)(C)C` [Compound 833], the Ki was under 100 nM.
Same read-out and setting: the result for `[2H][C@@](CCC)(NC(=O)[C@@H]1C[C@]2(CC(c3cc(C)c(OC)c(C)c3)=NO2)CN1C(=O)[C@@H](NC(=O)CC1CCCCC1)C(C)(C)C)C(=O)C(=O)NC1CC1` [Compound 967] reads under 100 nM.
Same read-out and setting: with `CCC[C@H](NC(=O)[C@@H]1C[C@]2(CC(N3CCc4ccccc4C3)=NO2)CN1C(=O)[C@@H](NC(=O)OC1CCCC1)C(C)(C)C)C(=O)C(=O)NC1CC1` [Compound 962] the figure was 100 to 500 nM.
